Assay results from ChEMBL document CHEMBL5360545, “Multitargeted drug design strategy for discovery of short-peptide-based HIV-1 entry inhibitors with high potency” (Eur J Med Chem, 2023).
Side chains are listed from the residue outwards. Peptide text beside a SMILES is read from it. * marks the point of attachment. PEG24 = NCCOCCOCCOCCOCCOCCOCCOCCOCCOCCOCCOCCOCCOCCOCCOCCOCCOCCOCCOCCOCCOCCOCCOCCOCCC(=O)O; X3 = Cc1ccc(N(CCCN2CCN(Cc3ccc(F)cc3)CC2)C(=O)C2CCN(C(=O)COCC(=O)*)CC2)cc1Cl; X1 = CC(=O)N1CCC(C(=O)N(CCCN2CCC(Cc3ccc(C(=O)*)cc3)CC2)c2ccc(C)c(Cl)c2)CC1; PEG12 = NCCOCCOCCOCCOCCOCCOCCOCCOCCOCCOCCOCCOCCC(=O)O

These compounds were tested on Human immunodeficiency virus 1 (assay: Antiviral activity against HIV-1 Bal-R5 infected in human CEMx174 5.25M7 cells assessed as reduction in p24 antigen level measured after 4 days by ELISA). Conditions: Human immunodeficiency virus 1, Bal-R5, CEMx174 5.25M7, 96 h.
Format: functional, organism-based

EC50 [nM] | SMILES
6.26 | CC[C@H](C)[C@H](NC(C)=O)C(=O)N[C@@H](CCC(=O)O)C(=O)N[C@@H](CCC(=O)O)C(=O)N[C@@H](CC(C)C)C(=O)N[C@H](C(=O)N[C@@H](CCCNC(=N)N)C(=O)N[C@@H](C)C(=O)N[C@@H](C)C(=O)N[C@@H](CCC(N)=O)C(=O)N[C@@H](CCC(=O)O)C(=O)N[C@@H](CCC(N)=O)C(=O)N[C@@H](CCC(N)=O)C(=O)N[C@@H](CCCNC(=N)N)C(=O)N[C@@H](CCCCN)C(=O)N[C@@H](CC(N)=O)C(=O)N[C@@H](CCC(=O)O)C(=O)N[C@@H](CCC(=O)O)C(=O)N[C@@H](C)C(=O)N[C@@H](CC(C)C)C(=O)N[C@@H](CCCNC(=N)N)C(=O)N[C@@H](CCC(=O)O)C(=O)N[C@@H](CC(C)C)C(=O)N[C@@H](CCCCNC(=O)CCOCCOCCOCCOCCOCCOCCOCCOCCOCCOCCOCCOCCNC(=O)COCC(=O)N1CCC(C(=O)N(CCCN2CCN(Cc3ccc(F)cc3)CC2)c2ccc(C)c(Cl)c2)CC1)C(N)=O)[C@@H](C)CC (Ac-IEELIRAAQEQQRKNEEALRELK([PEG12-X3])-NH2)
0.26 | CC[C@H](C)[C@H](NC(C)=O)C(=O)N[C@@H](CCC(=O)O)C(=O)N[C@@H](CCC(=O)O)C(=O)N[C@@H](CC(C)C)C(=O)N[C@H](C(=O)N[C@@H](CCCNC(=N)N)C(=O)N[C@@H](C)C(=O)N[C@@H](C)C(=O)N[C@@H](CCC(N)=O)C(=O)N[C@@H](CCC(=O)O)C(=O)N[C@@H](CCC(N)=O)C(=O)N[C@@H](CCC(N)=O)C(=O)N[C@@H](CCCNC(=N)N)C(=O)N[C@@H](CCCCN)C(=O)N[C@@H](CC(N)=O)C(=O)N[C@@H](CCC(=O)O)C(=O)N[C@@H](CCC(=O)O)C(=O)N[C@@H](C)C(=O)N[C@@H](CC(C)C)C(=O)N[C@@H](CCCNC(=N)N)C(=O)N[C@@H](CCC(=O)O)C(=O)N[C@@H](CC(C)C)C(=O)N[C@@H](CCCCNC(=O)CCOCCOCCOCCOCCOCCOCCOCCOCCOCCOCCOCCOCCOCCOCCOCCOCCOCCOCCOCCOCCOCCOCCOCCOCCNC(=O)c1ccc(CC2CCN(CCCN(C(=O)C3CCN(C(C)=O)CC3)c3ccc(C)c(Cl)c3)CC2)cc1)C(N)=O)[C@@H](C)CC (Ac-IEELIRAAQEQQRKNEEALRELK([PEG24-X1])-NH2)
1.75 | CC[C@H](C)[C@H](NC(=O)[C@H](CCCCN)NC(=O)[C@H](CCC(N)=O)NC(=O)[C@H](CCC(=O)O)NC(=O)[C@H](Cc1c[nH]c2ccccc12)NC(C)=O)C(=O)N[C@@H](CCC(=O)O)C(=O)N[C@@H](CCC(=O)O)C(=O)N[C@@H](CC(C)C)C(=O)N[C@@H](CC(C)C)C(=O)N[C@@H](CCCCN)C(=O)N[C@@H](CCCCN)C(=O)N[C@@H](C)C(=O)N[C@@H](CCC(=O)O)C(=O)N[C@@H](CCC(=O)O)C(=O)N[C@@H](CCC(N)=O)C(=O)N[C@@H](CCC(N)=O)C(=O)N[C@@H](CCCCN)C(=O)N[C@@H](CCCCN)C(=O)N[C@@H](CC(N)=O)C(=O)N[C@@H](CCC(=O)O)C(=O)N[C@@H](CCC(=O)O)C(=O)N[C@@H](CCC(=O)O)C(=O)N[C@@H](CC(C)C)C(=O)N[C@@H](CCCCN)C(=O)N[C@@H](CCCCN)C(=O)N[C@@H](CC(C)C)C(=O)N[C@@H](CCC(=O)O)C(=O)N[C@@H](CCCCN)C(=O)N[C@@H](CCCCNC(=O)c1ccc(CC2CCN(CCCN(C(=O)C3CCN(C(C)=O)CC3)c3ccc(C)c(Cl)c3)CC2)cc1)C(N)=O (Ac-WEQKIEELLKKAEEQQKKNEEELKKLEKK(X1)-NH2)
